Columns and labels:
ABUTH (Velvetleaf) = assay: Postemergence herbicidal evaluation; format: in vivo, Abutilon theophrasti
How it was run: (§1)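 Visual 0–9 rating versus control (stand, vigor, malformation, size, chlorosis, overall appearance), taken four to five weeks post-spray. Two-week-old seedlings received roughly 0.0156–0.500 kg/ha active in acetone/water (50/50) with 0.5% TWEEN 20 via nozzle at 40 psi.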

[1] = test system: IPOHE (Morningglory, Ivyleaf); assay: Postemergence herbicidal evaluation; format: in vivo, Ipomoea hederacea
How it was run: as §1

[2] = test system: TRZAWR (Wheat, Winter, cv Riband); assay: Postemergence herbicidal evaluation; format: in vivo, Triticum aestivum
How it was run: as §1

[3] = test system: CHEAL (Lambsquarters, Common); assay: Preemergence herbicidal evaluation; format: in vivo, Chenopodium album; settings: rated 4-5 weeks after treatment
How it was run: (§2)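 Test compound, dissolved in aqueous acetone, was sprayed over planted soil cups at an equivalent of about 0.0156 to 0.500 kg/ha; seeds had been mixed with potting soil. Greenhouse growth followed, with visual 0-9 scoring of injury at four to five weeks.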

[4] = test system: IPOHE (Morningglory, Ivyleaf); assay: Preemergence herbicidal evaluation; format: in vivo, Ipomoea hederacea; settings: rated 4-5 weeks after treatment
How it was run: as §2

ECHCG (Barnyardgrass) = assay: Preemergence herbicidal evaluation; format: in vivo, Echinochloa crus-galli; settings: rated 4-5 weeks after treatment
How it was run: as §2

SETVI (Foxtail, Green) = assay: Preemergence herbicidal evaluation; format: in vivo, Setaria viridis; settings: rated 4-5 weeks after treatment
How it was run: as §2

ORYSAT (Rice, Tebonnet) = assay: Preemergence herbicidal evaluation; format: in vivo, Oryza sativa, (L.) Tebonnet; settings: rated 4-5 weeks after treatment
How it was run: as §2

[5] = test system: TRZAWR (Wheat, Winter, cv Riband); assay: Preemergence herbicidal evaluation; format: in vivo, Triticum aestivum; settings: rated 4-5 weeks after treatment
How it was run: as §2

[6] = test system: ECHORC (Watergrass (Calif.)); assay: Preemergence weed control under flooded paddy conditions; format: in vivo, Echinochloa oryzoides; settings: rated 3-4 weeks after treatment
How it was run: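 Visual injury scored 0-9 against control three to four weeks post-treatment, greenhouse-grown. Application: acetone/water (50/50) solutions dosed directly into flood water (1.5-3 cm over silt loam, planted top 0.5 cm), roughly 0.0313 to 0.500 kg/ha active ingredient.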

MOOVA (Monochoria) = assay: as above; format: in vivo, Monochoria vaginalis; settings: rated 3-4 weeks after treatment
How it was run: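 Flooded-pot preemergence screen with silt loam and seeds in the upper 0.5 cm. Dose about 0.0313 to 0.500 kg/ha, delivered into flood water; visual 0-9 score after 3 to 4 weeks.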

[7] = test system: ECHORC (Watergrass (Calif.)); assay: Postemergence weed control under flooded paddy conditions; format: in vivo, Echinochloa oryzoides; settings: postemergence weeds, 3-4 weeks after treatment
How it was run: (§3)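 Injury ratings (0–9 scale covering stand, vigor, malformation, size, chlorosis and overall appearance versus control) were made three to four weeks after treatment. Test material, about 0.0313 to 0.500 kg/ha a.i. in 50/50 v/v aqueous/acetone, was added to flood water 1.5 to 3 cm deep over 3 to 5 cm weeds and 1.5 to 2.5 leaf rice.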

CYPIR (Rice Flatsedge) = assay: as above; format: in vivo, Cyperus iria; settings: postemergence weeds, 3-4 weeks after treatment
How it was run: as §3

Compound	Postemergence herbicidal rating ABUTH (ABUTH (Velvetleaf); Rate 0.0158 kg/ha)	Postemergence herbicidal rating ABUTH (ABUTH (Velvetleaf); Rate 0.0315 kg/ha)	Postemergence herbicidal rating ABUTH (ABUTH (Velvetleaf); Rate 0.0630 kg/ha)	Postemergence herbicidal rating IPOHE ([1]; Rate 0.0158 kg/ha)	Postemergence herbicidal rating IPOHE ([1]; Rate 0.0315 kg/ha)	Postemergence herbicidal rating IPOHE ([1]; Rate 0.0630 kg/ha)	Postemergence herbicidal rating TRZAWR ([2]; Rate 0.0158 kg/ha)	Postemergence herbicidal rating TRZAWR ([2]; Rate 0.0315 kg/ha)	Postemergence herbicidal rating TRZAWR ([2]; Rate 0.0630 kg/ha)	Preemergence herbicidal rating CHEAL ([3]; rate 0.0625 kg/ha)	Preemergence herbicidal rating CHEAL ([3]; rate 0.1250 kg/ha)	Preemergence herbicidal rating CHEAL ([3]; rate 0.2500 kg/ha)	Preemergence herbicidal rating IPOHE ([4]; rate 0.0625 kg/ha)	Preemergence herbicidal rating IPOHE ([4]; rate 0.1250 kg/ha)	Preemergence herbicidal rating IPOHE ([4]; rate 0.2500 kg/ha)	Preemergence herbicidal rating ECHCG (ECHCG (Barnyardgrass); rate 0.0625 kg/ha)	Preemergence herbicidal rating ECHCG (ECHCG (Barnyardgrass); rate 0.1250 kg/ha)	Preemergence herbicidal rating ECHCG (ECHCG (Barnyardgrass); rate 0.2500 kg/ha)	Preemergence herbicidal rating SETVI (SETVI (Foxtail, Green); rate 0.0625 kg/ha)	Preemergence herbicidal rating SETVI (SETVI (Foxtail, Green); rate 0.1250 kg/ha)	further results
Cn1c(C(F)(F)F)cc(=O)n(-c2cc(/N=C3/SCC(=O)N3CC(=O)O)c(Cl)cc2F)c1=O [Compound 52, 2-{{2-Chloro-5-[3,6-dihydro-3-methyl-2,6-dioxo-4-(trifluoromethyl)-1(2H)-pyrimidinyl]-4-fluoro-phenyl}imino}-4-oxo-3-thiazolidineacetic acid]	1.0	9.0	9.0	4.0	9.0	9.0	2.5	3.0	4.5	6.0	9.0	9.0	1.0	2.0	9.0	0.0	0.0	1.0	0.0	1.0	Preemergence herbicidal rating CHEAL ([3]; rate 0.0313 kg/ha): 0.0; Preemergence herbicidal rating IPOHE ([4]; rate 0.0313 kg/ha): 0.0; Preemergence herbicidal rating ECHCG (ECHCG (Barnyardgrass); rate 0.0313 kg/ha): 0.0; Preemergence herbicidal rating SETVI (SETVI (Foxtail, Green); rate 0.0313 kg/ha): 0.0; Preemergence herbicidal rating SETVI (SETVI (Foxtail, Green); rate 0.2500 kg/ha): 9.0; Preemergence herbicidal rating ORYSAT (ORYSAT (Rice, Tebonnet); rate 0.0313 kg/ha): 0.0; Preemergence herbicidal rating ORYSAT (ORYSAT (Rice, Tebonnet); rate 0.0625 kg/ha): 0.0; Preemergence herbicidal rating ORYSAT (ORYSAT (Rice, Tebonnet); rate 0.1250 kg/ha): 0.0; Preemergence herbicidal rating ORYSAT (ORYSAT (Rice, Tebonnet); rate 0.2500 kg/ha): 4.0; Preemergence herbicidal rating TRZAWR ([5]; rate 0.0313 kg/ha): 0.0; Preemergence herbicidal rating TRZAWR ([5]; rate 0.0625 kg/ha): 0.0; Preemergence herbicidal rating TRZAWR ([5]; rate 0.1250 kg/ha): 2.0; Preemergence herbicidal rating TRZAWR ([5]; rate 0.2500 kg/ha): 5.0; Herbicidal rating ECHORC ([6]; 0.2500 kg/ha): 0.0; Herbicidal rating MOOVA (MOOVA (Monochoria); 0.2500 kg/ha): 4.0; Herbicidal rating ECHORC ([7]; rate 0.2500 kg/ha): 0.0; Herbicidal rating CYPIR (CYPIR (Rice Flatsedge); rate 0.2500 kg/ha): 2.0
Cn1c(C(F)(F)F)cc(=O)n(-c2cc(N=C3SCC(=O)N3CCC(=O)O)c(Cl)cc2F)c1=O [Compound 31, 2-{{2-Chloro-5-[3,6-dihydro-3-methyl-2,6-dioxo-4-(trifluoromethyl)-1(2H)-pyrimidinyl]-4-fluoro-phenyl}imino}-4-oxo-3-thiazolidinepropionic acid]	9.0	9.0	9.0	9.0	9.0	9.0	5.0	5.5	6.5	0.0	9.0	9.0	0.0	5.0	9.0	0.0	9.0	9.0	1.0	9.0	Preemergence herbicidal rating SETVI (SETVI (Foxtail, Green); rate 0.2500 kg/ha): 9.0; Preemergence herbicidal rating ORYSAT (ORYSAT (Rice, Tebonnet); rate 0.0625 kg/ha): 0.0; Preemergence herbicidal rating ORYSAT (ORYSAT (Rice, Tebonnet); rate 0.1250 kg/ha): 2.0; Preemergence herbicidal rating ORYSAT (ORYSAT (Rice, Tebonnet); rate 0.2500 kg/ha): 6.0; Preemergence herbicidal rating TRZAWR ([5]; rate 0.0625 kg/ha): 0.0; Preemergence herbicidal rating TRZAWR ([5]; rate 0.1250 kg/ha): 3.0; Preemergence herbicidal rating TRZAWR ([5]; rate 0.2500 kg/ha): 7.0; Herbicidal rating ECHORC ([6]; 0.0625 kg/ha): 1.0; Herbicidal rating ECHORC ([6]; 0.1250 kg/ha): 2.0; Herbicidal rating ECHORC ([6]; 0.2500 kg/ha): 5.0; Herbicidal rating MOOVA (MOOVA (Monochoria); 0.0625 kg/ha): 0.0; Herbicidal rating MOOVA (MOOVA (Monochoria); 0.1250 kg/ha): 0.0; Herbicidal rating MOOVA (MOOVA (Monochoria); 0.2500 kg/ha): 2.5; Herbicidal rating ECHORC ([7]; rate 0.0625 kg/ha): 1.0; Herbicidal rating ECHORC ([7]; rate 0.1250 kg/ha): 2.0; Herbicidal rating ECHORC ([7]; rate 0.2500 kg/ha): 5.0; Herbicidal rating CYPIR (CYPIR (Rice Flatsedge); rate 0.0625 kg/ha): 0.0; Herbicidal rating CYPIR (CYPIR (Rice Flatsedge); rate 0.1250 kg/ha): 0.0; Herbicidal rating CYPIR (CYPIR (Rice Flatsedge); rate 0.2500 kg/ha): 2.5
